Data from PMC13539321 (Journal of Advanced Research, 2025).

Target: Mushroom TYR (EC 1.14.18.1) (Agaricus bisporus, UniProt C7FF04)
Experiment: biochemical
Settings: IC50 value ± SD
[1] = L-dopa, substrate L-dopa (diphenolase), n = 3, screening of de novo generated compounds (Table 1)
[2] = L-tyrosine, substrate L-tyrosine (monophenolase), n = 3, screening of de novo generated compounds (Table 1)

Sequence of Mushroom TYR (EC 1.14.18.1) (C7FF04 1-392 limits assumed): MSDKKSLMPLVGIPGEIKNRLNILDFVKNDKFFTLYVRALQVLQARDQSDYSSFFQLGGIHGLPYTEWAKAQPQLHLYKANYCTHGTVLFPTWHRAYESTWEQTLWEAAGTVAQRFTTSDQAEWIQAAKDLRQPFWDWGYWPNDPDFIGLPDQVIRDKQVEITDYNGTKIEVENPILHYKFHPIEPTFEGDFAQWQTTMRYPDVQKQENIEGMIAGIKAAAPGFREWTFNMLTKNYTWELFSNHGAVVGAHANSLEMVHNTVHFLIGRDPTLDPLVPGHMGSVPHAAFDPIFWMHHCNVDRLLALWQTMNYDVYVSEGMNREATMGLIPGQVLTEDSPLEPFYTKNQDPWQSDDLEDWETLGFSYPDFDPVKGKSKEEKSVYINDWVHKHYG

SMILES | IC50 [1] | IC50 [2] | IC50 (L-dopa) | IC50 (L-tyrosine)
COc1cc(C(=O)N[C@@H](Cc2ccccc2)C(N)=O)ccc1O [Compound I, (S)-N-(1-amino-1-oxo-3-phenylpropan-2-yl)-4-hydroxy-3-methoxybenzamide] | > 800 µM | > 800 µM | – | –
O=C(CCc1cccc(O)c1)N1CCN(Cc2ccccc2F)CC1 [Compound V-1, 1-(4-(2-fluorobenzyl)piperazin-1-yl)-3-(3-hydroxyphenyl)propan-1-one] | – | – | > 800 µM | 204 ± 3.9 µM
O=C(CCc1cccc(O)c1)N1CCN(Cc2cccc(F)c2)CC1 [Compound V-2, 1-(4-(3-fluorobenzyl)piperazin-1-yl)-3-(3-hydroxyphenyl)propan-1-one] | – | – | > 400 µM | 295 ± 24.2 µM
O=C(CCc1ccccc1O)N1CCN(Cc2ccc(F)cc2)CC1 [Compound V-3, 1-(4-(4-fluorobenzyl)piperazin-1-yl)-3-(2-hydroxyphenyl)propan-1-one] | – | – | 66.1 ± 4.6 µM | 60.6 ± 4.5 µM
O=C(CCc1ccc(O)cc1)N1CCN(Cc2ccc(F)cc2)CC1 [Compound V-4, 1-(4-(4-fluorobenzyl)piperazin-1-yl)-3-(4-hydroxyphenyl)propan-1-one] | – | – | 26.1 ± 4.6 µM | 2.9 ± 0.1 µM
O=C(/C=C/c1cccc(O)c1)N1CCN(Cc2ccc(F)cc2)CC1 [Compound V-5, (E)-1-(4-(4-fluorobenzyl)piperazin-1-yl)-3-(3-hydroxyphenyl)prop-2-en-1-one] | – | – | > 200 µM | 148 ± 25.4 µM
O=C(CCc1cccc(O)c1)N1CCCN(Cc2ccc(F)cc2)CC1 [Compound V-6, 1-(4-(4-fluorobenzyl)-1,4-diazepan-1-yl)-3-(3-hydroxyphenyl)propan-1-one] | – | – | 296 ± 7.9 µM | 88.9 ± 2.9 µM
O=C(CCc1cccc(O)c1)N1CC2CN(Cc3ccc(F)cc3)CC2C1 (stereo not drawn) [Compound V-7, 1-(5-(4-fluorobenzyl)hexahydropyrrolo[3,4-c]pyrrol-2(1H)-yl)-3-(3-hydroxyphenyl)propan-1-one] | – | – | 119 ± 5.2 µM | 25.8 ± 1.1 µM
O=C(CCc1cccc(O)c1)NCCNCc1ccc(F)cc1 [Compound V-8, N-(2-((4-fluorobenzyl)amino)ethyl)-3-(3-hydroxyphenyl)propanamide] | – | – | > 800 µM | 298 ± 16.6 µM
O=C(CCc1cccc(O)c1)NCCCNCc1ccc(F)cc1 [Compound V-9, N-(3-((4-fluorobenzyl)amino)propyl)-3-(3-hydroxyphenyl)propanamide] | – | – | > 800 µM | 328 ± 4.9 µM
O=C(CCc1cccc(O)c1)N1CCN(Cc2cccc(Cl)c2)CC1 [Compound V-10, 1-(4-(3-chlorobenzyl)piperazin-1-yl)-3-(3-hydroxyphenyl)propan-1-one] | – | – | 19 ± 2.2 µM | 7.4 ± 0.4 µM
Cc1ccc(CN2CCN(C(=O)CCc3cccc(O)c3)CC2)cc1 [Compound V-11, 3-(3-hydroxyphenyl)-1-(4-(4-methylbenzyl)piperazin-1-yl)propan-1-one] | – | – | > 400 µM | 20.1 ± 0.7 µM
CCc1ccc(CN2CCN(C(=O)CCc3cccc(O)c3)CC2)cc1 [Compound V-12, 1-(4-(4-ethylbenzyl)piperazin-1-yl)-3-(3-hydroxyphenyl)propan-1-one] | – | – | > 800 µM | > 800 µM
COc1ccc(CN2CCN(C(=O)CCc3cccc(O)c3)CC2)cc1 [Compound V-13, 3-(3-hydroxyphenyl)-1-(4-(4-methoxybenzyl)piperazin-1-yl)propan-1-one] | – | – | 103 ± 5.6 µM | 132 ± 5.4 µM
N#Cc1ccc(CN2CCN(C(=O)CCc3cccc(O)c3)CC2)cc1 [Compound V-14, 4-((4-(3-(3-hydroxyphenyl)propanoyl)piperazin-1-yl)methyl)benzonitrile] | – | – | 72.6 ± 3.1 µM | 83.2 ± 3.2 µM
O=C(CCc1cccc(O)c1)N1CCN(C/C=C/c2ccc(F)cc2)CC1 [Compound V-15, (E)-1-(4-(3-(4-fluorophenyl)allyl)piperazin-1-yl)-3-(3-hydroxyphenyl)propan-1-one] | – | – | 140 ± 15.6 µM | 41.8 ± 3.2 µM
O=C(CCc1cccc(O)c1)N1CCN(CCc2ccccc2)CC1 [Compound V-16, 3-(3-hydroxyphenyl)-1-(4-phenethylpiperazin-1-yl)propan-1-one] | – | – | > 800 µM | > 300 µM
O=C(CCc1cccc(O)c1)N1CCN(Cc2ccco2)CC1 [Compound V-17, 1-(4-(furan-2-ylmethyl)piperazin-1-yl)-3-(3-hydroxyphenyl)propan-1-one] | – | – | > 800 µM | > 600 µM
O=C(CCc1cccc(O)c1)N1CCN(Cc2cccs2)CC1 [Compound V-18, 3-(3-hydroxyphenyl)-1-(4-(thiophen-2-ylmethyl)piperazin-1-yl)propan-1-one] | – | – | > 800 µM | > 300 µM
O=C(CCc1cccc(O)c1)N1CCN(Cc2ccccn2)CC1 [Compound V-19, 3-(3-hydroxyphenyl)-1-(4-(pyridin-2-ylmethyl)piperazin-1-yl)propan-1-one] | – | – | > 800 µM | > 600 µM
O=C(CCc1cc(O)cc(O)c1)N1CCN(Cc2ccc(F)cc2)CC1 [Compound V-20, 3-(3,5-dihydroxyphenyl)-1-(4-(4-fluorobenzyl)piperazin-1-yl)propan-1-one] | – | – | 21.3 ± 0.8 µM | 9.1 ± 0.6 µM

SMILES | IC50 [1] | IC50 [2] | IC50 (L-dopa) | IC50 (L-tyrosine)
O=C(CCc1cc(O)ccc1O)N1CCN(Cc2ccc(F)cc2)CC1 [Compound V-21, 3-(2,5-dihydroxyphenyl)-1-(4-(4-fluorobenzyl)piperazin-1-yl)propan-1-one] | – | – | 21 ± 0.82 µM | 8.2 ± 0.4 µM
O=C(/C=C/c1ccc(O)cc1O)N1CCN(Cc2ccc(F)cc2)CC1 [Compound V-22, (E)-3-(2,4-dihydroxyphenyl)-1-(4-(4-fluorobenzyl)piperazin-1-yl)prop-2-en-1-one] | – | – | 0.085 ± 0.016 µM | 0.122 ± 0.008 µM
Cc1ccc(CN2CCN(C(=O)CCc3ccc(O)cc3O)CC2)cc1 [Compound V-23, 3-(2,4-dihydroxyphenyl)-1-(4-(4-methylbenzyl)piperazin-1-yl)propan-1-one] | – | – | 0.134 ± 0.008 µM | 0.183 ± 0.013 µM
COc1ccc(CN2CCN(C(=O)CCc3ccc(O)cc3O)CC2)cc1 [Compound V-25, 3-(2,4-dihydroxyphenyl)-1-(4-(4-methoxybenzyl)piperazin-1-yl)propan-1-one] | – | – | 0.147 ± 0.013 µM | 0.165 ± 0.008 µM
COc1ccc(CN2CCN(C(=O)/C=C/c3ccc(O)cc3O)CC2)cc1 [Compound V-26, (E)-3-(2,4-dihydroxyphenyl)-1-(4-(4-methoxybenzyl)piperazin-1-yl)prop-2-en-1-one] | – | – | 0.02 ± 0.002 µM | 0.023 ± 0.002 µM
CCOc1ccc(CN2CCN(C(=O)CCc3ccc(O)cc3O)CC2)cc1 [Compound V-27, 3-(2,4-dihydroxyphenyl)-1-(4-(4-ethoxybenzyl)piperazin-1-yl)propan-1-one] | – | – | 0.596 ± 0.026 µM | 0.497 ± 0.07 µM
CCOc1ccc(CN2CCN(C(=O)/C=C/c3ccc(O)cc3O)CC2)cc1 [Compound V-28, (E)-3-(2,4-dihydroxyphenyl)-1-(4-(4-ethoxybenzyl)piperazin-1-yl)prop-2-en-1-one] | – | – | 0.019 ± 0.0002 µM | 0.021 ± 0.001 µM
O=C(CCc1ccc(O)cc1O)N1CCN(Cc2cccc(Cl)c2)CC1 [Compound V-29, 1-(4-(3-chlorobenzyl)piperazin-1-yl)-3-(2,4-dihydroxyphenyl)propan-1-one] | – | – | 0.189 ± 0.005 µM | 0.216 ± 0.019 µM
O=C(/C=C/c1ccc(O)cc1O)N1CCN(Cc2cccc(Cl)c2)CC1 [Compound V-30, (E)-1-(4-(3-chlorobenzyl)piperazin-1-yl)-3-(2,4-dihydroxyphenyl)prop-2-en-1-one] | – | – | 0.022 ± 0.001 µM | 0.021 ± 0.0003 µM
O=C(CCc1ccc(O)cc1O)N1CCN(Cc2ccc(Cl)cc2)CC1 [Compound V-31, 1-(4-(4-chlorobenzyl)piperazin-1-yl)-3-(2,4-dihydroxyphenyl)propan-1-one] | – | – | 0.153 ± 0.011 µM | 0.187 ± 0.003 µM
O=C(/C=C/c1ccc(O)cc1O)N1CCN(Cc2ccc(Cl)cc2)CC1 [Compound V-32, (E)-1-(4-(4-chlorobenzyl)piperazin-1-yl)-3-(2,4-dihydroxyphenyl)prop-2-en-1-one] | – | – | 0.021 ± 0.002 µM | 0.024 ± 0.002 µM
N#Cc1ccc(CN2CCN(C(=O)CCc3ccc(O)cc3O)CC2)cc1 [Compound V-33, 4-((4-(3-(2,4-dihydroxyphenyl)propanoyl)piperazin-1-yl)methyl)benzonitrile] | – | – | 0.237 ± 0.011 µM | 0.299 ± 0.007 µM
N#Cc1ccc(CN2CCN(C(=O)/C=C/c3ccc(O)cc3O)CC2)cc1 [Compound V-34, (E)-4-((4-(3-(2,4-dihydroxyphenyl)acryloyl)piperazin-1-yl)methyl)benzonitrile] | – | – | 0.032 ± 0.004 µM | 0.041 ± 0.005 µM
NC(=O)[C@H](Cc1ccccc1)NC(=O)CCc1cccc(O)c1 [II, (S)-N-(1-amino-1-oxo-3-phenylpropan-2-yl)-3-(3-hydroxyphenyl)propanamide] | > 800 µM | 423 ± 38.3 µM | – | –
NC(=O)[C@H](Cc1ccccc1)NC(=O)c1cccc(O)c1 [III, (S)-N-(1-amino-1-oxo-3-phenylpropan-2-yl)-3-hydroxybenzamide] | > 800 µM | > 800 µM | – | –
O=C(CCc1cccc(O)c1)NC1CCN(Cc2ccccc2)CC1 [IV, N-(1-benzylpiperidin-4-yl)-3-(3-hydroxyphenyl)propanamide] | > 800 µM | 198 ± 7.6 µM | – | –
O=C(O)c1ccc(CN2CCC(C(=O)c3ccccc3)CC2)cc1 [IX, 4-((4-benzoylpiperidin-1-yl)methyl)benzoic acid] | > 800 µM | > 800 µM | – | –
O=C(NCc1ccc(F)cc1)c1cc(O)nc2ccccc12 [VI, N-(4-fluorobenzyl)-2-hydroxyquinoline-4-carboxamide] | > 800 µM | > 800 µM | – | –
COc1cccc(/C=C/C(=O)Nc2n[nH]c3ccccc23)c1 [VII, (E)-N-(1H-indazol-3-yl)-3-(3-methoxyphenyl)acrylamide] | > 800 µM | > 800 µM | – | –
O=C(NCCc1cccc(O)c1)c1cccc2ncccc12 [VIII, N-(3-hydroxyphenethyl)quinoline-5-carboxamide] | > 800 µM | > 800 µM | – | –
Cc1ccccc1CNC(=O)CCc1cccc(O)c1 [X, 3-(3-hydroxyphenyl)-N-(2-methylbenzyl)propanamide] | 462 ± 50.4 µM | 60.9 ± 1.9 µM | – | –
